{"source": "paper PMC2649750", "about": "(The Journal of pharmacology and experimental therapeutics, 2008)", "target": "tubulin", "experiment": "inhibition of [3H]vinblastine binding", "parameters": "species or system Bos taurus", "data": [{"compound": "C/C=C/C(O)C(C)(C)[C@@H]1C\\C=C/C=C\\C=C/[C@H](OC)Cc2nc(co2)C(=O)O[C@H](C(C)(C)C(O)/C=C/C)C/C=C\\C=C/C=C[C@H](OC)Cc2nc(co2)C(=O)O1", "note": "(stereo partly shown) [disorazole C1]", "values": [{"measurement": "Ki", "value": "4.5 ± 0.6", "unit": "µM"}]}]}
